Reference: publication PMC6412891, “Synthesis and Biological Evaluation of Novel Thiazolyl-Coumarin Derivatives as Potent Histone Deacetylase Inhibitors with Antifibrotic Activity” (Molecules, 2019)

Columns and labels:
HDAC6 human recombinant = target: T1, HDAC6 human recombinant (Homo sapiens, UniProt Q9UBN7); assay: HDAC6 inhibitory activity, fluorometric kit; assay type: biochemical; details: Class II
T1 construct: purchased Enzo Life Science BML-AK516
T1 sequence (Q9UBN7 1-1215): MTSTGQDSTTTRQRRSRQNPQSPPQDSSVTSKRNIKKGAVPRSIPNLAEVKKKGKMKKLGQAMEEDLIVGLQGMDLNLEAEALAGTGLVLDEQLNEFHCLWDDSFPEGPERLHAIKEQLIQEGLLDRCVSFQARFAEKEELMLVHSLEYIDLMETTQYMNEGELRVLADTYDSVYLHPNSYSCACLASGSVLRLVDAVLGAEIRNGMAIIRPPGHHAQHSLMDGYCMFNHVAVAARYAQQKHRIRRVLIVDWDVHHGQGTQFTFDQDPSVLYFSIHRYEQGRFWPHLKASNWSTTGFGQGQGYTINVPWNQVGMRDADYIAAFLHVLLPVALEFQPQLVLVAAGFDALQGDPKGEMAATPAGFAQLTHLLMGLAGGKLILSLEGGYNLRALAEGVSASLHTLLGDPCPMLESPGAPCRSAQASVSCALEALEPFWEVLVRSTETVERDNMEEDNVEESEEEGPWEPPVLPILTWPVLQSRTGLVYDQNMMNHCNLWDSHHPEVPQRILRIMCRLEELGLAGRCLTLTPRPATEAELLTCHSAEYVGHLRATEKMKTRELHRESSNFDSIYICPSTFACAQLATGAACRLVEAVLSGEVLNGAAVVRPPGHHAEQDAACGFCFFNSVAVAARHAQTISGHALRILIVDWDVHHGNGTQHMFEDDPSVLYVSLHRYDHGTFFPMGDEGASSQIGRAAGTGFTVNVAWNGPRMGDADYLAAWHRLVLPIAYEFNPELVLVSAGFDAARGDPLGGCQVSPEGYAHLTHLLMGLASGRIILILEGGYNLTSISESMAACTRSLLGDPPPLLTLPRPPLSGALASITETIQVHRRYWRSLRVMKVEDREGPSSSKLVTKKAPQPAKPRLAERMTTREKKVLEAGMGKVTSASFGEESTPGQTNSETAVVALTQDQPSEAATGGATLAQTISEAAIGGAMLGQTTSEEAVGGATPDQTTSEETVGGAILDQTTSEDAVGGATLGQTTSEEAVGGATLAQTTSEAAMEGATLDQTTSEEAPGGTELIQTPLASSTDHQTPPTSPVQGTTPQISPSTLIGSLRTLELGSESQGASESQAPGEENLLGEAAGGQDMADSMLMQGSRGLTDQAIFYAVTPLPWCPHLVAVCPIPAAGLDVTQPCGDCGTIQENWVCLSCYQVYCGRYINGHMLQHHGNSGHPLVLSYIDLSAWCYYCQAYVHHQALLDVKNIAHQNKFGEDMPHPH

[1] = system: HDACs HeLa cells nuclear extract; assay: HDAC inhibitory activity, fluorometric kit, HeLa cell nuclear extract; assay type: biochemical, human; details: HeLa cell nuclear extract as HDAC source
[2] = system: neonatal rat cardiac fibroblasts (CFs); assay: FBS-induced cardiac fibroblast proliferation assay (Alamar Blue); assay type: cell-based; details: 10% FBS-induced CF proliferation, 48 h, read-out: Inhibition percentage of cell proliferation
Method: CFs were treated for 48 h with 10% fetal bovine serum (FBS), to induce CFs proliferation in presence/absence of each new CTz derivatives in a concentration range of 1–10 μM. In Table 4, the inhibition percentage of cell proliferation for each concentration of the synthesized compounds are shown. All derivatives inhibited CFs proliferation induce by serum.
Sprague Dawley rats were obtained from the Animal Breeding Facility of the School of Chemical and Pharmaceutical Sciences at the University of Chile. All studies followed the Guide for the Care and Use of Laboratory Animals published by the US National Institutes of Health (NIH Publication 8th, 2011), and experimental protocols were approved by the University of Chile Institutional Ethics Review Committee. CF were isolated from of 2 or 3–day–old Sprague-Dawley rats and cultured as described previously. Briefly, the neonatal rats were decapitated and their hearts were extracted under aseptic environment. Atria were removed and ventricles were cut into small pieces (~1–2 mm) for posterior colagenase II digestion. The digestion yield was separated by 10 min centrifugation at 89×g. The pellet was resuspended in 10 mL of Dulbecco’s Modified Eagle’s Medium/Nutrient F-12 (DMEM-F12) supplemented with 10% FBS and antibiotics (100 μg/mL streptomycin and 100 units/mL penicillin) and cultured in a humid atmosphere of 5% CO2 and 95% O2 at 37°C until confluence (5 days). The purity of the CFs population was assessed through the expression of several markers. CFs had positive staining against vimentin (Santa Cruz Biotechnology), while being negative against sarcomeric actin and desmin (Sigma-Aldrich). Experiments were performed on cells at passage 1. […]
To evaluate cytotoxicity, CFs were seeded in 12 microwell plates at a ratio of 2 × 10^4 cell/cm^2, cultured in DMEM–F12 medium + 10% FBS, which was subsequently replaced by DMEM–F12. After 24 h of serum starvation derivatives were applied at proper times and concentrations in accordance to experimental procedures. Cell viability assays were carried out using Alamar Blue®, a nontoxic, cell permeable non fluorescent compound that is blue in color. Viable cells reduce resazurin to resorufin, which produces very bright red fluorescence which is used as a quantitative cell viability measure. […] The fluorescence of Alamar Blue® was read using microplate reader at 570 excitation and emission to 595 nm. Cell survival was expressed as percentage over the untreated cells. […] Cell proliferation was quantified by Alamar Blue®, according to protocol mentioned before. Cell proliferation was expressed as percentage over the control FBS treated cells.

HDAC1 human recombinant = target: T2, HDAC1 human recombinant (Homo sapiens, UniProt Q13547); assay: HDAC1 inhibitory activity, fluorometric kit; assay type: biochemical; details: Class I
T2 construct: purchased Enzo Life Science BML-AK511

[3] = Cytotoxicity assay (Alamar Blue) in cardiac fibroblasts; assay type: cell-based, rat; details: Sprague-Dawley, rat, primary neonatal rat cardiac fibroblasts (CFs), CFs treated for 48 h
Method: CFs were treated for 48 h with all the new CTz derivatives in a broad concentration range (100 μM^−1 mM), and their cytotoxicity was then evaluated. In Table 3 cytotoxic concentration 50 (CC50) values for each of the synthesized compounds are shown. […] When comparing the different ZBG the series 5 is the least cytotoxic for CFs, while series 8 was the most cytotoxic.
Sprague Dawley rats were obtained from the Animal Breeding Facility of the School of Chemical and Pharmaceutical Sciences at the University of Chile. All studies followed the Guide for the Care and Use of Laboratory Animals published by the US National Institutes of Health (NIH Publication 8th, 2011), and experimental protocols were approved by the University of Chile Institutional Ethics Review Committee. CF were isolated from of 2 or 3–day–old Sprague-Dawley rats and cultured as described previously. Briefly, the neonatal rats were decapitated and their hearts were extracted under aseptic environment. Atria were removed and ventricles were cut into small pieces (~1–2 mm) for posterior colagenase II digestion. The digestion yield was separated by 10 min centrifugation at 89×g. The pellet was resuspended in 10 mL of Dulbecco’s Modified Eagle’s Medium/Nutrient F-12 (DMEM-F12) supplemented with 10% FBS and antibiotics (100 μg/mL streptomycin and 100 units/mL penicillin) and cultured in a humid atmosphere of 5% CO2 and 95% O2 at 37°C until confluence (5 days). The purity of the CFs population was assessed through the expression of several markers. CFs had positive staining against vimentin (Santa Cruz Biotechnology), while being negative against sarcomeric actin and desmin (Sigma-Aldrich). Experiments were performed on cells at passage 1. Cells were cultured in 35-mm well plates and serum starved for 24 h prior to stimulation.
To evaluate cytotoxicity, CFs were seeded in 12 microwell plates at a ratio of 2 × 10^4 cell/cm^2, cultured in DMEM–F12 medium + 10% FBS, which was subsequently replaced by DMEM–F12. After 24 h of serum starvation derivatives were applied at proper times and concentrations in accordance to experimental procedures. Cell viability assays were carried out using Alamar Blue®, a nontoxic, cell permeable non fluorescent compound that is blue in color. Viable cells reduce resazurin to resorufin, which produces very bright red fluorescence which is used as a quantitative cell viability measure. 10 μL of 0.2 mg/mL Alamar Blue® was added into each well followed by incubation for 24 h. The fluorescence of Alamar Blue® was read using microplate reader at 570 excitation and emission to 595 nm. Cell survival was expressed as percentage over the untreated cells. To evaluate CFs proliferation assay, cells were seeded as mentioned before, and after serum starvation, they were stimulated by 10% fetal bovine serum (FBS), in presence/absence of CTz derivatives for […], at concentrations according to experiment. Cell proliferation was quantified by Alamar Blue®, according to protocol mentioned before. Cell proliferation was expressed as percentage over the control FBS treated cells.

α-SMA expression in CFs = assay: α-SMA expression levels in cardiac fibroblasts, western blot; assay type: cell-based, rat; details: derivatives 5 μM (TSA 0.1 μM) for 48 h in presence of TGF-β1
Method: For this purpose, a fixed concentration of 5a, 6a, 7a and 8a derivatives in the presence/absence of TGF–β1 (a strong inducer of CFs–to–CMFs differentiation), was studied, and α–SMA expression levels were measured by using the western blot technique. TSA was used as a control and also for comparative purposes.
(§1) For the analysis of the protein expression of histone H4–acetylated (ac–H4) and total H4 histone, a number of 1 × 10^6 of CFs seeded in 60 mm plates was used, which were incubated with the inhibitory compounds at a concentration of 10 μM, in the absence/presence of TGF–β1(5ng/mL) for 4 h. Subsequently, total histones were extracted by the technique of saline precipitation (high salt extraction). Briefly, CFs were scraped from the plates with 1 mL of cold PBS transferring their contents to Eppendorf tubes to be centrifuged for 60 s at 1500 rpm at 4 °C and re–suspended in 400 μL of cold buffer A (10 mM 4-(2-hydroxyethyl)-1-piperazineethanesulfonic acid-KOH (HEPES-KOH) adjusted to pH 7.9, 1.5 mM MgCl2, 10 mM KCl, 0.5 mM dithiothreitol and 0.2 mM phenylmethylsulfonyl fluoride (PMSF). The suspension is left on ice for 10 min and then placed in the vortex for 10 s. The samples were centrifuged for 60 s, subsequently discarding the supernatant fraction. The obtained pellet was re-suspended in 60 μL of cold C buffer (20 mM HEPES-KOH adjusted to pH 7.9, 25% glycerol, 420 mM NaCl, 1.5 mM MgCl2, 0.2 mM EDTA, dithiothreitol 0.5 mM and 0.2 mM PMSF) and placed on ice for 20 min for saline precipitation. Cell debris is removed by centrifugation for 120 s at 1500 rpm at 4 °C and the supernatant fraction, which contains the DNA binding proteins, is stored at minus 20 °C. For the analysis of α–SMA and procollagen type I expression levels, 3×10^5 CFs seeded in 35 mm plates were used, which were incubated together with inhibitor compounds at a 5 μM, in the absence/presence of TGF–β1 (5 ng/mL) for 48 h. To obtain the total proteins, the CFs were washed three times with cold PBS, then scraped and lysed with 50 μL of radio inmuno-precipitation assay (RIPA) lysis buffer (10 mM Tris–HCl pH 7.2, 5 mM EDTA, 150 mM NaCl, Triton X–100 1%, sodium dodecyl sulfate (SDS) 0.1%, deoxycholate 1%, leupeptin 2 μg/mL, aprotinin 10mM, PMSF 1mM and Na3VO4 100μM). The solution was centrifuged for 15 min at 10,000 rpm and at 4 °C. The supernatant fraction containing the total proteins was stored at minus 20 °C. The concentration of proteins obtained was determined by spectrophotometry at 570 nm, using the Bradford method (Bio-Rad, Hercules, CA, USA).
(§2) CFs proteins (25 μg), were subjected to 10% sodium dodecyl sulfate-polyacrylamide gel electrophoresis and finally transferred onto a nitrocellulose membrane (Millipore, Billerica, MA, USA). The membrane was washed twice with tris–buffered saline solution containing 0.1% Tween 20 (TBST). After being blocked with TBST containing 5% nonfat milk for 40 min, the membrane was incubated with primary antibodies in TBST/1% nonfat milk at 4 °C overnight. The membrane was washed three times with TBST for a total of 15 min and then incubated with primary antibodies (ac–H4, H4 total, α-SMA, procollagen type I and GAPDH). Then the membrane was incubated with goat anti–rabbit or anti-mouse IgG antibodies conjugated with horseradish (diluted 1:1000) for 1 h at room temperature. Signals were developed with ECL reagents and exposure to photographic film.
Figure 4 CTz non–substituted inhibit α-SMA expression in cardiac fibroblasts. (A) CFs were exposed to 5a, 6a, 7a and 8a at 5 μM for 48 h. […] (B) CFs were exposed to 5a, 6a, 7a and 8a at 5 μM for 48 h in presence of TGF–β1 ([…]). α-SMA expression levels were measured by western blot. GAPDH was used as control load.

[4] = system: procollagen type I expression in CFs; assay: Procollagen type I expression levels in cardiac fibroblasts, western blot; assay type: cell-based, rat; details: derivatives 5 μM (TSA 0.1 μM) for 48 h in presence of TGF-β1
Method: In CFs collagen type I secretion is a hallmark of cardiac fibrosis development, which is regulated by HDACs. […] For this purpose, a fixed concentration of 5a, 6a, 7a and 8a derivatives in presence/absence of TGF-β1 were studied, and procollagen type I expression levels were measured by using the western blot technique. TSA was used as control and also for comparative purposes. In Figure 5 (A and B), in the upper panel representative photographs of procollagen type I expression level and GAPDH (used as charge control) are shown, whereas in the lower panel the graphic analyses are observed.
as §1, §2
Figure 5 CTz non–substituted inhibit procollagen type I expression levels in cardiac fibroblasts. […] (B) CFs were exposed to 5a, 6a, 7a and 8a at 5 μM for 48 h in presence of TGF–β1. Procollagen type I expression levels were measured by western blot. GAPDH was used as control load.

T2 sequence (Q13547 whole entry): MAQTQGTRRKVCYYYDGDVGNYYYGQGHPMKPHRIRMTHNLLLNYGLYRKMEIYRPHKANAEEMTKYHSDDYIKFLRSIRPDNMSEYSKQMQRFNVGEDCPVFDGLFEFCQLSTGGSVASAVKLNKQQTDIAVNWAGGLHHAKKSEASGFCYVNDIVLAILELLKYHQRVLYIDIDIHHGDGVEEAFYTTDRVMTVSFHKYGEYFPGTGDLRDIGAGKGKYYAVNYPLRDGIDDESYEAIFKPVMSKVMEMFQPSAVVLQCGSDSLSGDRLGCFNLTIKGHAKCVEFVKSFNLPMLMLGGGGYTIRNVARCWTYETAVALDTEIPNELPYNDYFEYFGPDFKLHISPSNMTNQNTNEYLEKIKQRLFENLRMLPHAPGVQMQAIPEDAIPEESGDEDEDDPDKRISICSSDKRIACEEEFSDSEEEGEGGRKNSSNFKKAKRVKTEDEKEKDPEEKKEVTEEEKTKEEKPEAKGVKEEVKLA

IC50 (HDAC6 human recombinant) | melting point | IC50 [1] | IC50 (HDAC1 human recombinant) | SMILES | inhibition at 1 µM ([2]; 1 μM) | inhibition at 5 µM ([2]; 5 μM) | inhibition at 10 µM ([2]; 10 μM) | CC50 at 48 h [3] | α-SMA expression levels induced by TGF-β1 (α-SMA expression in CFs) | procollagen type I expression levels induced by TGF-β1 [4]
123 ± 5.1 nM | 150 to 153 °C | 62.1 ± 2.5 nM | 47.6 ± 2.3 nM | O=C(CCCCC1CCSS1)Nc1nc(-c2cc3cc(Br)ccc3oc2=O)cs1 (centres unmarked) [Compound 5b, 5-[1,2]-Dithiolan-3-yl-N-[4-(6-bromo-2-oxo-2H-chromen-3-yl)-thiazol-2-yl]-pentanamide] | 71.5 ± 3.8% | 89.1 ± 9.5% | 96.4 ± 4.7% | 127000 ± 19200 nM | – | –
– | – | 5 ± 0.12 nM | – | CC(/C=C/C(=O)NO)=C\[C@@H](C)C(=O)c1ccc(N(C)C)cc1 [TSA, trichostatin A, reference compound] | – | – | – | – | decrease close to control levels | decreased, close to control levels
